According to patent US8841269B2, “Polynucleotides for use in treating and diagnosing cancers” (Creighton University, priority 2010, dated 2014):
Entries after “also recorded” stand apart in the source; their conditions may differ.

Experiments:
[1] = tested on: 3′ UTR of human ER-α gene; assay: Luciferase reporter assay, ER-α 3′ UTR let-7 binding site in pMIR-REPORT; format: cell-based; details: MCF7 cells; for luciferase activity, ER-α binding site in 3′UTR of luciferase: 60 nmol/L mimics, vs negative control miRNA; for luciferase activity, mutated ER-α binding sequence: mutated sequence in 3′UTR of luciferase
Description: Luciferase assay. A fragment of the 3′ UTR of human ER-α gene, which contains the putative let-7 target sites, was synthesized (IDT technology). With attached SpeI and HindIII restriction sites, the fragments are 48 by long. The sense strand was 5′-[…] (SEQ ID NO:39) while the antisense strand was 5′-[…] (SEQ ID NO:40). The cloning and transfection followed previous protocol (Hu et al., 2009, J Immunol 183:1617-24). Sixty nanomolar let-7 mimics, anti-let-7 inhibitors, pre-miR negative control #1 (AM17110, Ambion), or anti-miR negative control #1 (AM17010, Ambion) were transfected together with a 0.25 μg luciferase construct and a 0.25 μg β-galactosidase plasmid, which were used as a normalization reference. After 24 hour post-transfection, the luciferase activity was measured in a Veritas Microplate Luminometer (Turner Biosystems). Every treatment had 3 replicates. The luciferase activity was expressed as a fraction of negative control.

pS2 = assay: Immunoblot of pS2 after transfection in MCF7; format: cell-based, human; details: MCF7, mimics; for expression of pS2 (protein): after 2 days; for protein expression of pS2: after 6 days
Description: Immunoblot analysis. For Western blot in FFPE tissues, an established method was followed (Addis et al., 2009, Proteomics 9:3815-23). For MCF7 cell line, let-7 mimics and negative control miRNA (60 nmol/L), or let-7 inhibitors and anti-miR negative control (60 nmol/L) were transfected following the protocol of siPORT NeoFX Transfection Agent (Applied Biosystems), The Western blot procedure was described before (Zhang et al., 2010, J Proteome Res., 9(2):980-989). Antibody information is as follows: ER-α, RB-9016-P1, Thermoscientific; Cyclin D1, sc-8396, Santa Cruz; pS2, ab80782 was Abeam; β-Actin, sc-69879, Santa Cruz.

ER-α36 = assay: Immunoblot of ER-α36 after transfection; format: cell-based, human; details: MDA-MB-231, two days post transfection of mimics
Protocol: Let-7 miRNA or negative control #1 miRNA of 60 nmol/L (Ambion, Austin, Tex.) was transfected into cells with the siPORT NeoFX reagent (Ambion, Austin, Tex.) following the manufacturer's protocol.
Cells were lysed with NP40 cell lysis buffer (250 mM NaCl, 50 mM Tris-HCl, pH 7.4, 5 mM EDTA, 50 mM NaF, 1 mM Na3VO4, 1% Nonidet P40, 1 mM PMSF, proteinase and phosphoproteinase inhibitor cocktails). The protein was also extracted from FFPE sections. FFPE sections (50 μm thick) were transferred into a microcentrifuge tube and treated with xylene, followed by vortexing vigorously for 10 seconds. After centrifugation and removal of supernatant, the sections were washed with xylene two more times, followed by one more wash with 1 mL of 100% ethanol. The resultant pellets were vacuum dried, then resuspended in 300 μL of 20 mM Tris-HCl (pH 8.0) and 2% SDS and homogenized. The samples were then boiled at 100° C. for 20 minutes and incubated at 60° C. for 1 hour. After centrifugation at 10,000 g for 15 min at 4° C., the supernatant protein was saved for immunoblot analysis.
After mixed with gel-loading buffer and boiled for 5 minutes, the protein samples were separated with 10% SDS-PAGE and transferred to a PVDF membrane (Millipore, Billerica, Mass.). […] Gel density was quantified with Quantity One and expressed as a relative value against β-actin. […]

[2] = Stability of miRNAs in serum (room temperature, freeze/thaw); format: physicochemical, human; details: serum from a healthy person, freeze/thaw up to eight times
Protocol: (§1) FIG. 21. Stability of miRNAs in room temperature for number of time points. 300 μl of sera from a healthy person was thawed on ice and lysed with an equal volume of 2× Denaturing Solution (Ambion). RNA was isolated spiked sera using the mirVana PARIS kit following the manufacturer's protocol for liquid samples (Ambion). RNA was eluted with 50 μl of nuclease-free water. This experiment was performed in triplicates.
as §1, with “22.” for “21.”, “freeze/thaws.” for “room temperature for number of time points.”, “ice, exogenous miRNAs were spiked in,” for “ice”, “and then performed freeze/thaw cycles for the indicated times, then” for “and”
Second, we wanted to know whether our lab conditions such as temperature and freezing and thawing affect the stability of miRNAs. We selected a serum sample from healthy […], and incubated in room temperature for a series of time points (spiked three exogenous miRNAs as external controls) (FIG. 21). As expected, the selected miRNAs were very stable throughout the experiment. This observation is in consistent with the literature (Mitchell et al., 2008, Proc. Natl. Acad. Sci. U.S.A 105:10513-8). […]

**Q.** With “let-7b: let-7b miRNA (mimic), 3′-UUGGUGUGUUGGAUGAUGGAGU-5′ (SEQ ID NO:8) (chemistry not given here; listed 3' to 5')” as the substance, how does the “luciferase activity, ER-α binding site in 3′UTR of luciferase” value [1] read?
**A.** decreased the luciferase activity; also recorded: significantly inhibited the luciferase activity

**Q.** And the “luciferase activity, mutated ER-α binding sequence” value [1]?
**A.** abrogated the effects; also recorded: did not show inhibition

**Q.** What about the “expression of pS2 (protein)” value (pS2) of the same substance?
**A.** significantly inhibited

**Q.** What about the “protein expression of pS2” value (pS2) of the same substance?
**A.** significantly suppressed

**Q.** What about the ER-α36 protein level (ER-α36) of the same substance?
**A.** strongly inhibited; also recorded: inhibited

**Q.** And the “stability in repeated freeze/thaws” value [2]?
**A.** relatively stable

**Q.** What does the source list for “let-7i: let-7i miRNA (mimic), 3′-UUGUCGUGUUUGAUGAUGGAGU-5′ (SEQ ID NO:14) (chemistry not given here; listed 3' to 5')”?
**A.** luciferase activity, ER-α binding site in 3′UTR of luciferase [1]: decreased the luciferase activity; also recorded: significantly inhibited the luciferase activity; luciferase activity, mutated ER-α binding sequence [1]: abrogated the effects; also recorded: did not show inhibition; expression of pS2 (protein) (pS2): significantly inhibited; protein expression of pS2 (pS2): significantly suppressed; ER-α36 protein level (ER-α36): strongly inhibited; also recorded: inhibited; stability in repeated freeze/thaws [2]: relatively stable
